# Like-named read-outs stand apart in the source and are kept apart here.
# Key:
# [1] = PK study in rats (intravenous and oral); format: in vivo, Male Sprague Dawley rats; details: for Vd / clearance: iv, 10 mg/kg; for Vd: read-out: Vss; for clearance: read-out: CLp (converted); for Tmax: 20 mg/kg
# Protocol: The in vivo experimental protocol was approved by the Institutional Animal Care and Use Committee of Research Laboratory at Ildong pharmaceutical Co., Ltd. (Ref. No.: IDL-PDF-001 and 09005-11004). Animals were acclimatized to the laboratory conditions for at least 1 week before the experiments and were kept in the standardized conditions (20–25 °C, 55 ± 5% humidity, and a 12 h light/dark cycle). The animals fasted overnight prior to drug administration, and food was resupplied 4 h post-dose. Male Sprague Dawley rats (Orient Bio Inc., Seongnam, Korea), weighing 194.7 g to 205.4 g, were used in this study. IDP-73152 was administered to rats at a single dose of 2.5, 5, or 10 mg/kg via tail vein injection (the injection volume fixed at 2 mL/kg in saline). […] Blood samples (100 μL) were collected from the jugular vein at 0.167, 0.33, 0.5, 1, 2, 4, and 8 h after the administration. Plasma was separated/collected by centrifugation of the blood samples for 5 min at 10,000× g/4 °C and stored at −80 °C until analysis. When necessary, the biliary and renal excretion of IDP-73152 were studied in bile duct-cannulated rats after the intravenous injection (5 mg/kg) to investigate its route(s) of excretion in rats. Bile and urine samples were collected up to 8 h (i.e., approximately 5 times of the terminal phase half-life) after the administration and the samples were stored at −80 °C until the analysis. The cumulative excretion of the bile and the urine to infinite time was determined by assuming that the excretion was practically completed by the last collection time. When necessary for a model independent PK analysis, a standard moment analysis was carried out with WinNonlin software using either representative (for the study with mice) or individual (for the study with rats, dogs, and humans) concentration–time profile(s). For the calculation of PBPK models, Berkeley Madonna 8.3.18 (Albany, CA, USA) was used with the fourth-order Runge–Kutta method for numerical integration.
# [2] = Unbound fraction in hepatocyte incubation, rat; format: in vitro ADME; details: hepatocytes (hepatocyte incubation mixture), rats hepatocyte incubation, read-out: fu,hep
# Protocol: The unbound fractions of IDP-73152 in various matrices were measured according to the manufacturer’s instructions for the rapid equilibrium dialysis (RED) device (ThermoFisher Scientific, Waltham, MA, USA). Briefly, IDP-73152 was added to the plasma or the microsomal/hepatocyte incubation buffer from various species (i.e., mouse, rat, dog, and human for microsomal incubation; rat for hepatocyte incubation) to obtain final concentrations of the compound at 0.3, 1, and 3 μM. After the membrane insert was placed in the RED plate, the solution containing IDP-73152 was added (400 µL) to the sample chamber, and the dialysis buffer (600 μL) was added to the buffer chamber. The RED plate was sealed with parafilm and then incubated at 37 °C in the orbital shaker (Lab Companion, Daejeon, Korea) at 100 rpm for 5 h. After a 50 μL aliquot was aspirated from both the sample and buffer chambers, an equal volume of protein-free buffer or blank medium was replaced in the aspirated sample or buffer to render the matrices compositionally identical. The IDP-73152 concentration in the buffer/sample chambers (i.e., CBuffer Chamber and CSample Chamber) was determined by an assay. Thus, the fraction unbound was defined as:(2) % Fraction unbound=(CBuffer Chamber/CSample Chamber)×100%
# [3] = Biliary and renal excretion in bile duct-cannulated rats; format: in vivo; details: intravenous 5 mg/kg, up to 8 h
# Protocol: Male Sprague Dawley rats (Orient Bio Inc., Seongnam, Korea), weighing 194.7 g to 205.4 g, were used in this study. IDP-73152 was administered to rats at a single dose of 2.5, 5, or 10 mg/kg via tail vein injection (the injection volume fixed at 2 mL/kg in saline). […] Blood samples (100 μL) were collected from the jugular vein at 0.167, 0.33, 0.5, 1, 2, 4, and 8 h after the administration. Plasma was separated/collected by centrifugation of the blood samples for 5 min at 10,000× g/4 °C and stored at −80 °C until analysis. When necessary, the biliary and renal excretion of IDP-73152 were studied in bile duct-cannulated rats after the intravenous injection (5 mg/kg) to investigate its route(s) of excretion in rats. Bile and urine samples were collected up to 8 h (i.e., approximately 5 times of the terminal phase half-life) after the administration and the samples were stored at −80 °C until the analysis. The cumulative excretion of the bile and the urine to infinite time was determined by assuming that the excretion was practically completed by the last collection time.
# [4] = male, Sprague Dawley, rat, plasma, intravenous, across doses of 2.5, 5, and 10 mg/kg
smiles,measurement,setting,value
CC(C)(C)[C@H](NC(=O)[C@H](CC1CCCC1)CN(O)C=O)C(=O)N1CCC(NCc2cc(F)c(F)cc2F)CC1 [IDP-73152],AUC(0-inf),"[1]; male, Sprague Dawley, rat, plasma, intravenous 2.5 mg/kg, read-out: Observed AUCinf",1320 ± 130 ng·h/mL
same,AUC(0-inf),"[1]; male, Sprague Dawley, rat, plasma, intravenous 5 mg/kg, read-out: Observed AUCinf",3270 ± 1820 ng·h/mL
same,AUC(0-inf),"[1]; male, Sprague Dawley, rat, plasma, intravenous 10 mg/kg, read-out: AUCinf",5030 ± 380 ng·h/mL
same,half-life,"[1]; male, Sprague Dawley, rat, plasma, intravenous 10 mg/kg, read-out: t1/2 (converted)",1.43 ± 0.11 h
same,Vd,"[1]; male, Sprague Dawley, rat, plasma, intravenous 10 mg/kg, moment analysis",2.54 ± 0.26 L/kg
same,clearance,"[1]; male, Sprague Dawley, rat, plasma, intravenous 10 mg/kg",~33.3 mL/min/kg
same,clearance,[1]; [4],30.8 to 33.3 mL/min/kg
same,Vd,[1]; [4],2.45 to 2.78 L/kg
same,Cmax,"[1]; male, Sprague Dawley, rat, plasma, oral 20 mg/kg",1650 ± 440 ng/mL
same,bioavailability,"[1]; male, Sprague Dawley, rat, plasma, oral 20 mg/kg vs intravenous 10 mg/kg, read-out: F (bioavailability)",55.3%
same,AUC(0-inf),"[1]; male, Sprague Dawley, rat, plasma, oral 20 mg/kg, read-out: AUCinf",5570 ± 1590 ng·h/mL
same,half-life,"[1]; male, Sprague Dawley, rat, plasma, oral 20 mg/kg, read-out: t1/2 (terminal phase half-life) (converted)",2.97 ± 1.4 h
same,Tmax,"[1]; male, Sprague Dawley, rat, plasma, po, oral 20 mg/kg, read-out: Tmax",0.667 h
same,Tmax,[1]; oral 20 mg/kg,0.638 ± 0.29 h
same,fraction unbound at 5 h,[2],0.492 ± 0.068
same,biliary recovery of intact drug,[3],0.512 ± 0.154 % of the dose
same,urinary recovery of intact drug,[3],1.21 ± 0.48 % of the dose

# — article PMC9227536, “Prediction of Pharmacokinetics of IDP-73152 in Humans Using Physiologically-Based Pharmacokinetics” (Pharmaceutics, 2022)
